Source: patent publication US20070238770A1, “PROCESS FOR PREPARING NOVEL CRYSTALLINE FORMS OF PELIGLITAZAR, NOVEL STABLE FORMS PRODUCED THEREIN AND FORMULATIONS” (Bristol-Myers Squibb Company, priority 2006, published 2007)

How the values were obtained:
[1] = Mechanical stress on crystal form; format: physicochemical; details: mechanical stress applied
[2] = Solid state stability under storage conditions (DSC, PXRD, HPLC); details: for solid state stability (physically and chemically): RT/RL, 25° C./60% RH, 40° C./75% RH, 50° C., up to 2 weeks, DSC, PXRD, HPLC analysis
[3] = Moisture-sorption isotherm; format: physicochemical; details: from 25 to 75% RH at 25° C.
Experimental: Moisture sorption isotherms were collected in a VTI SGA-100 Symmetric Vapor Analyzer using approximately 10 mg of sample. The sample was dried at 60° C. until the loss rate of 0.0005 wt %/min was obtained for 10 minutes. The sample was tested at 25° C. and 3 or 4, 5, 15, 25, 35, 45, 50, 65, 75, 85, and 95% RH. Equilibration at each RH was reached when the rate of 0.0003 wt %/min for 35 minutes was achieved or a maximum of 600 minutes.

Solubility in water = format: physicochemical; details: final pH 7.6

SMILES | conversion of N-1 form to the N-2 form under mechanical stress [1] | solid state stability (physically and chemically) [2] | conversion of the N-1 form to the N-2 form (PXRD analysis) ([2]; under the storage conditions of b18) | moisture uptake (hygroscopicity) [3] | solubility in water (Solubility in water)
COc1ccc(OC(=O)N(CC(=O)O)[C@@H](C)c2ccc(OCCc3nc(-c4ccccc4)oc3C)cc2)cc1 [Form N-1, peliglitazar] | will not cause conversion | stable | no conversion | negligible | 
COc1ccc(OC(=O)N(CC(=O)O)[C@@H](C)c2ccc(OCCc3nc(-c4ccccc4)oc3C)cc2)cc1.NCCCC[C@H](N)C(=O)O |  | stable |  |  | greater than 124 mg/mL
